Values of other authors, collected in article PMC11171218, “N-Benzylated 5-Hydroxybenzothiophene-2-carboxamides as Multi-Targeted Clk/Dyrk Inhibitors and Potential Anticancer Agents” (Cancers, 2024).

Molecular target: Clk1 (Homo sapiens, UniProt P49759)
Set-up: method as in PMID 28561591, PMID 25221649
Settings: Figure 1; ref [38],[45]; cited from earlier work

Clk1, sequence (P49759 whole entry): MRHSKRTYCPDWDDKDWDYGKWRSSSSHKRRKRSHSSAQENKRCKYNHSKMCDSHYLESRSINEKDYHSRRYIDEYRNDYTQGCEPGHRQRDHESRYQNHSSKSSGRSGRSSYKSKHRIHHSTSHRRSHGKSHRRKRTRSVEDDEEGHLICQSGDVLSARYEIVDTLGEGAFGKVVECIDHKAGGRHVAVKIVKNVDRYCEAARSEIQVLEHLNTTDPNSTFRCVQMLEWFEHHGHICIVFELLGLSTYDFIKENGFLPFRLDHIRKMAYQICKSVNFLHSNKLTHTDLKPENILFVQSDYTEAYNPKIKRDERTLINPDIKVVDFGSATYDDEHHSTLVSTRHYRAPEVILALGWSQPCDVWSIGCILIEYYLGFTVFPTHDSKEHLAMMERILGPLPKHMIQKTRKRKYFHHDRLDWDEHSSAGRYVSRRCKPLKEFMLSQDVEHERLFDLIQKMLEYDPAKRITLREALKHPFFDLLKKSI

Structure (SMILES) | IC50
CC(=O)c1cc2cc(O)ccc2s1 [Compound (i)] | 50 nM
Cc1ccc(C(=O)c2cc3cc(O)ccc3s2)cc1O [Compound (ii)] | 60 nM
